Data published in patent publication US10669242B2 (priority 2016, dated 2020).
Where a name gives a salt, the structure may show the parent alone.

The molecules below were run against T1, recombinant glucosyltransferase domain of C. difficile Toxin B/TcdB (Clostridioides difficile, UniProt P18177) (assay: biochemical). Settings: not given.
T1 construct: 6-His (C); purchased R&D Systems 6246-GT
T1 sequence (P18177 1-543): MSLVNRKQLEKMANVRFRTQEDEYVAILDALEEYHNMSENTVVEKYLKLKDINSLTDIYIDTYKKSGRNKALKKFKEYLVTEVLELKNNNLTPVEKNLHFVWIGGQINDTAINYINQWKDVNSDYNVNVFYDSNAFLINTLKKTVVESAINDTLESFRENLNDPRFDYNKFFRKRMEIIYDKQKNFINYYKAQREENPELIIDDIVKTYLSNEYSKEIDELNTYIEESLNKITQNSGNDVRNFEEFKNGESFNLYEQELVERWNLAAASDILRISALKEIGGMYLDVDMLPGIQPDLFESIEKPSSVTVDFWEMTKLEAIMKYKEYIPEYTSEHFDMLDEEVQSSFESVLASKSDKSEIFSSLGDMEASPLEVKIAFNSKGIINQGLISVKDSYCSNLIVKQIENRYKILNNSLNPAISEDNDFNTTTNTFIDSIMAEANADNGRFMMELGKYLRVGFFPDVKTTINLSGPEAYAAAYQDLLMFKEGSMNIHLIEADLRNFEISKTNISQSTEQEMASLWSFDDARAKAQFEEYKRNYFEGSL

| Compound | IC50 [nM] |
| --- | --- |
| O=C(c1ccc(CN2C(=O)c3ccc(Cl)cc3NC(=O)[C@H]2Cc2ccccn2)cc1)c1cccc2cccnc12 [Example 31b] | 1000 to 10000 |
| Cn1ccnc1C(=O)c1ccc(CN2C(=O)c3ccc(Cl)cc3NC(=O)[C@H]2Cc2ccccn2)cc1 [Example 31c] | 100 to 999 |
| Cn1cnc(C(=O)c2ccc(CN3C(=O)c4ccc(Cl)cc4NC(=O)[C@H]3Cc3ccccn3)cc2)c1 [Example 31d] | 100 to 999 |
| Cc1cc(C(=O)c2ccc(CN3C(=O)c4ccc(Cl)cc4NC(=O)[C@H]3Cc3ccccn3)cc2)c2nccn2c1 [Example 31e] | 1000 to 10000 |
| O=C(c1ccc(CN2C(=O)c3ccc(Cl)cc3NC(=O)[C@H]2Cc2ccccn2)cc1)c1cccn2ncnc12 [Example 31f] | < 100 |
| O=C1Nc2cc(Cl)ccc2C(=O)N(C[C@H]2CC[C@H](C(=O)c3cccc4cccnc34)CC2)[C@@H]1Cc1ccccn1 [Example 33a, (R)-8-Chloro-3-(pyridin-2-ylmethyl)-4-(((1r,4R)-4-(quinoline-8-carbonyl)cyclohexyl)methyl)-3,4-dihydro-1H-benzo[e][1,4]diazepine-2,5-dione] | 10000 to 35000 |
| Cn1ccnc1C(=O)[C@H]1CC[C@H](CN2C(=O)c3ccc(Cl)cc3NC(=O)[C@H]2Cc2ccccn2)CC1 [Example 33c] | 1000 to 10000 |
| Cn1cnc(C(=O)[C@H]2CC[C@H](CN3C(=O)c4ccc(Cl)cc4NC(=O)[C@H]3Cc3ccccn3)CC2)c1 [Example 33d] | 100 to 999 |
| Cc1ccc(NC(=O)c2ccc(CN3C(=O)c4ccc(Cl)cc4NC(=O)[C@@H]3Cc3cscn3)cc2)nc1 [Example 35a, (S)-4-((8-Chloro-2,5-dioxo-3-(thiazol-4-ylmethyl)-2,3-dihydro-1H-benzo[e][1,4]diazepin-4(5H)-yl)methyl)-N-(5-methylpyridin-2-yl)benzamide] | 100 to 999 |
| Cc1ccc(NC(=O)c2ccc(CN3C(=O)c4ccc(Cl)cc4NC(=O)[C@H]3Cc3ccsc3)cc2)nc1 [Example 35b] | < 100 |
| O=C(Nc1ccccn1)c1ccc(CN2C(=O)c3ccc(Cl)cc3NC(=O)[C@H]2c2ccccc2)cc1 [Example 35c] | 1000 to 10000 |
| COc1ccc(C[C@@H]2C(=O)Nc3cc(Cl)ccc3C(=O)N2Cc2ccc(C(=O)Nc3ccccn3)cc2)cc1 [Example 35d] | 100 to 999 |
| O=C(Nc1ccccn1)c1ccc(CN2C(=O)c3ccc(Cl)cc3NC(=O)C2CC2CCOCC2)cc1 (stereo not drawn) [Example 35e] | 1000 to 10000 |
| O=C(Nc1ccccn1)c1ccc(CN2C(=O)c3ccc(C(F)(F)F)cc3NC(=O)[C@H]2Cc2ccc(Cl)c(Cl)c2)cc1 [Example 35f] | 1000 to 10000 |
| O=C(Nc1ccccn1)c1ccc(CN2C(=O)c3ccccc3NC(=O)[C@H]2Cc2cccnc2)cc1 [Example 35g] | 100 to 999 |
| O=C(Nc1ccccn1)c1ccc(CN2C(=O)c3cc(Cl)ccc3NC(=O)[C@H]2Cc2cccnc2)cc1 [Example 35h] | 100 to 999 |
| O=C(Nc1ccccn1)c1ccc(CN2C(=O)c3cccc(Cl)c3NC(=O)[C@H]2Cc2cccnc2)cc1 [Example 35i] | 1000 to 10000 |
| O=C(Nc1ccccn1)c1ccc(CN2C(=O)c3ccc(Cl)cc3NC(=O)[C@H]2Cc2cccc(F)c2)cc1 [Example 35j] | < 100 |
| CC(C)C[C@@H]1C(=O)Nc2cc(Cl)ccc2C(=O)N1Cc1ccc(C(=O)Nc2ccccn2)cc1 [Example 35k] | 10000 to 35000 |
| O=C1Nc2cc(Cl)ccc2C(=O)N(C[C@H]2CC[C@H](C(=O)Nc3ccccn3)CC2)[C@@H]1Cc1cccnc1 [Example 35l] | 100 to 999 |
| O=C(Nc1ccccn1)c1ccc(CN2C(=O)c3ccc(Cl)cc3NC(=O)[C@@H]2Cc2cccnc2)cc1 [Example 35m] | 100 to 999 |

| Compound | IC50 [nM] |
| --- | --- |
| O=C(Nc1ccccn1)c1ccc(CN2C(=O)c3ccncc3NC(=O)[C@H]2Cc2cccnc2)cc1 [Example 35n] | 100 to 999 |
| O=C1Nc2cc(Cl)ccc2C(=O)N(Cc2ccc(S(=O)(=O)Nc3ccccn3)cc2)[C@@H]1Cc1cccnc1 [Example 36a, (R)-4-((8-Chloro-2,5-dioxo-3-(pyridin-3-ylmethyl)-2,3-dihydro-1H-benzo[e][1,4]diazepin-4(5H)-yl)methyl)-N-(pyridin-2-yl)benzenesulfonamide] | 1000 to 10000 |
| O=C1Nc2cc(Cl)ccc2C(=O)N(Cc2ccc3c(c2)CCN(c2ccccn2)C3=O)[C@@H]1Cc1ccccn1 [Example 37a, (R)-8-Chloro-4-((1-oxo-2-(pyridin-2-yl)-1,2,3,4-tetrahydroisoquinolin-6-yl)methyl)-3-(pyridin-2-ylmethyl)-3,4-dihydro-1H-benzo[e][1,4]diazepine-2,5-dione] | 1000 to 10000 |
| COc1ccc(COc2cc(CN3C(=O)c4ccc(Cl)cc4NC(=O)[C@H]3C)ccc2C(=O)O)cc1 [Example 38a, (R)-2-(4-Methoxybenzyloxy)-4-((8-chloro-3-methyl-2,5-dioxo-2,3-dihydro-1H-benzo[e][1,4]diazepin-4(5H)-yl)methyl)benzoic Acid] | 10000 to 35000 |
| Cc1ccc(NC(=O)c2ccc(CN3C(=O)c4ccc(NS(C)(=O)=O)cc4NC(=O)[C@H]3C)cc2)nc1 [Example 39a, (R)-4-((3-Methyl-8-(methylsulfonamido)-2,5-dioxo-2,3-dihydro-1H-benzo[e][1,4]diazepin-4(5H)-yl)methyl)-N-(5-methylpyridin-2-yl)benzamide] | 10000 to 35000 |
| O=C(NO)c1ccc(CN2C(=O)c3ccc(Cl)cc3NC(=O)[C@H]2Cc2ccccn2)cc1 [Example 40a, (R)-4-((8-Chloro-2,5-dioxo-3-(pyridin-2-ylmethyl)-2,3-dihydro-1H-benzo[e][1,4]diazepin-4(5H)-yl)methyl)-N-hydroxybenzamide] | < 100 |
| O=C1Nc2cc(Cl)ccc2C(=O)N(Cc2ccc(CO)cc2)[C@@H]1Cc1ccccn1 [Example 41a, 8-Chloro-4-(4-(hydroxymethyl)benzyl)-3-(pyridin-2-ylmethyl)-3,4-dihydro-1H-benzo[e][1,4]diazepine-2,5-dione] | 1000 to 10000 |
| O=C1Nc2cc(Cl)ccc2C(=O)N(CC2CCN(C(=O)Nc3ccccn3)CC2)[C@@H]1Cc1ccccn1 [Example 42a, (R)-4-((8-Chloro-2,5-dioxo-3-(pyridin-2-ylmethyl)-2,3-dihydro-1H-benzo[e][1,4]diazepin-4(5H)-yl)methyl)-N-(pyridin-2-yl)piperidine-1-carboxamide] | 1000 to 10000 |
| Cn1cc(C(=O)N2CCC(CN3C(=O)c4ccc(Cl)cc4NC(=O)[C@H]3Cc3ccccn3)CC2)c2ncccc21 [Example 43a, (R)-8-Chloro-4-((1-(1-methyl-1H-pyrrolo[3,2-b]pyridine-3-carbonyl)piperidin-4-yl)methyl)-3-(pyridin-2-ylmethyl)-3,4-dihydro-1H-benzo[e][1,4]diazepine-2,5-dione] | 1000 to 10000 |
| Cc1ccc(Nc2nn(C)c3cc(CN4C(=O)c5ccc(Cl)cc5NC(=O)[C@H]4Cc4ccccn4)ccc23)nc1 [Example 44a, (R)-8-Chloro-4-((1-methyl-3-((5-methylpyridin-2-yl)amino)-1H-indazol-6-yl)methyl)-3-(pyridin-2-ylmethyl)-3,4-dihydro-1H-benzo[e][1,4]diazepine-2,5-dione] | 100 to 999 |
| Nc1cccnc1C(=O)Nc1ccc(CN2C(=O)c3ccc(Cl)cc3NC(=O)[C@H]2Cc2ccccn2)cc1 [Example 45a, (R)-3-Amino-N-(4-((8-chloro-2,5-dioxo-3-(pyridin-2-ylmethyl)-2,3-dihydro-1H-benzo[e][1,4]diazepin-4(5H)-yl)methyl)phenyl)picolinamide] | < 100 |
| O=C1Nc2cc(Cl)ccc2C(=O)N(Cc2ccc(-n3cnc4cccnc4c3=O)cc2)[C@@H]1Cc1ccccn1 [Example 46a, (R)-8-Chloro-4-(4-(4-oxopyrido[3,2-c]pyrimidin-3(4H)-yl)benzyl)-3-(pyridin-2-ylmethyl)-3,4-dihydro-1H-benzo[e][1,4]diazepine-2,5-dione] | < 100 |
| Cc1nc2cccnc2c(=O)n1-c1ccc(CN2C(=O)c3ccc(Cl)cc3NC(=O)[C@H]2Cc2ccccn2)cc1 [Example 47a, (R)-8-Chloro-4-(4-(2-methyl-4-oxopyrido[3,2-d]pyrimidin-3(4H)-yl)benzyl)-3-(pyridin-2-ylmethyl)-3,4-dihydro-1H-benzo[e][1,4]diazepine-2,5-dione] | < 100 |
| O=C(Nc1ccc(N2CCNCC2)cn1)c1ccc(CN2C(=O)c3ccc(Cl)cc3NC(=O)[C@H]2Cc2ccccn2)cc1 [Example 48a, (R)-4-((8-Chloro-2,5-dioxo-3-(pyridin-2-ylmethyl)-2,3-dihydro-1H-benzo[e][1,4]diazepin-4(5H)-yl)methyl)-N-(5-(piperazin-1-yl)pyridin-2-yl)benzamide hydrochloride] | < 100 |
| O=C(Nc1ncc(C(F)(F)F)cn1)c1ccc(CN2C(=O)c3ccc(Cl)cc3NC(=O)[C@H]2Cc2ccccn2)cc1 [Example 49a, (R)-4-((8-Chloro-2,5-dioxo-3-(pyridin-2-ylmethyl)-2,3-dihydro-1H-benzo[e][1,4]diazepin-4(5H)-yl)methyl)-N-(5-(trifluoromethyl)pyrimidin-2-yl)benzamide] | < 100 |
| O=C1Nc2cc(Cl)ccc2C(=O)N(Cc2ccc3c(c2)CN(c2ccccn2)C3=O)[C@@H]1Cc1ccccn1 [Example 49d] | 100 to 999 |
| O=C1Nc2cc(Cl)ccc2C(=O)N(Cc2ccc3c(Nc4ccccn4)nccc3c2)[C@@H]1Cc1ccccn1 [Example 49e] | < 100 |
| CC1C(=O)Nc2cc(Cl)ccc2C(=O)N1C1(c2ccc(C(=O)c3cccn4ccnc34)cc2)CC1 (stereo not drawn) [Example 50a, 8-Chloro-4-(1-(4-(imidazo[1,2-α]pyridine-8-carbonyl)phenyl)cyclopropyl)-3-methyl-3,4-dihydro-1H-benzo[e][1,4]diazepine-2,5-dione] | 100 to 999 |
| O=C1Nc2cc(Cl)ccc2C(=O)N(Cc2ccc(C(O)c3ccccn3)cc2)[C@@H]1Cc1ccccn1 (stereo partly drawn) [Example 51a, (3R)-8-Chloro-4-(4-(hydroxy(pyridin-2-yl)methyl)benzyl)-3-(pyridin-2-ylmethyl)-3,4-dihydro-1H-benzo[e][1,4]diazepine-2,5-dione] | 1000 to 10000 |
| Cn1cccc(C(=O)c2ccc(CN3C(=O)c4ccc(Cl)cc4NC(=O)[C@H]3Cc3ccccn3)cc2)c1=O [Example 53a] | 100 to 999 |

Same assay, conditions: read-out: TcdB UDP-Glucose hydrolysis activity (IC50, coded); UDP-Glucose hydrolysis assay, fluorescence polarization

| Compound | IC50 [nM] |
| --- | --- |
| O=C1Nc2cc(Cl)ccc2C(=O)N(C[C@H]2CC[C@H](C(=O)c3cccn4ccnc34)CC2)[C@@H]1Cc1ccccn1 [Example 34b] | < 100 |
